Measured values from US8669232B2, “Flavonol compounds, a bioactive extract/fraction from Ulmus wallichiana and its compounds for prevention for treatment of osteo-health related disorders” (Council of Scientific & Industrial Research, priority 2008, dated 2014).

What was measured:
Ishikawa cells = experiment: In vitro estrogenicity / anti-estrogenicity (ALP induction); format: cell-based, human; details: 72 h; for inhibition of increase in ALP activity stimulated by 17β-estradiol (anti-estrogenicity): 10^−11 to 10^−6 M with 10^−8 M 17β-estradiol; for ALP levels (estrogenicity): 10^−11 to 10^−6 M
Description: The expression of alkaline phosphatase is induced in Ishikawa cells in response to estrogen or estrogen like substances (Littlefield et al, Endocrinology. 1990 December; 127(6):2757-62.). Ishikawa cells were plated in 96-well flat bottomed microtiter plates at a density of 5000 cells/well and cultured in phenol red free DMEM containing 10% charcoal treated FCS. After 24 h of plating, cells were serum-starved for 12 h. Thereafter, for testing estrogenicity of compounds, the cells were treated with different concentrations (10^−6 to 10^−11 M) of pure compounds K058 and K012. Same concentrations of Raloxifene were also used for comparison. Estrogen concentration of 10^−8 M was used as a positive control. Compound treatments were performed for 72 h at 37° C. in CO2 incubator. Experiments were repeated 4 times. For the anti-estrogenicity studies, the compounds K012 and K058 at 10^−6 to 10^−11 M were added with 10^−8 M estrogen. After 72 h of incubation, the media was removed and the plates were washed twice with PBS and dried by tapping, gently. Freeze fracture of cells was achieved by placing the plates at −70° C. for 15, min followed by bringing to room temperature. The plates were then placed on ice and 50 μl of ice cold diethanolamine solution (5 mM P-nitrophenyl phosphate (PNP) and 0.25 mM MgCl2 in 1 M diethanolamine) was added to each well. The plates were then placed at 37° C. for 30 minutes for color (yellow) development is a function of ALP activity. Absorbance was measured at 405 nm.

Bone marrow cells (BMCs) = experiment: In vitro mineralization from mouse bone marrow; format: cell-based, balb/c mice; details: 1 nM and 100 nM, 21 days
Source text: Adult balb/c mice were used in this study. Bone marrow cells (BMCs) were harvested from the femurs and tibias of the animals, as described elsewhere (Maniatopoulos et al. Cell Tissue Res 1988:254:317-30.; Ishaug et al., J Biomed Mater Res 1997; 36:17-28.). Briefly, bones were aseptically excised from the hind limbs of the mice following ether euthanasia. The soft tissue was removed, and the proximal end of the femur and distal end of the tibia were clipped off using sterile scissors, a hole was created in the knee joint end of each bone with an needle, and the marrow was flushed from the shaft with control medium (CM) which consisted of α-MEM supplemented with 10% fetal calf serum, 100 U/ml penicillin, 100 U/ml streptomycin (Sigma, Chemical Co., St. Louis, Mo., USA). The cells were suspended in this medium, and the cell suspensions from all bones were combined in a centrifuge tube. The suspension was spun down at 800 rpm for 5 min. Cells were counted by using a haemocytometer. The supernatant was aspirated, and the pellet was re-suspended in fresh CM and then seeded into 12-well plates. 200000 cells/well were cultured in 12-well plates and in a humidified atmosphere, with 5% CO2, at 37° C. in the same medium supplemented with 10 mM-β-glycerophosphate, 50 μg/ml L-ascorbic acid and 10^−8M dexamethasone with different concentration of the test compound. This medium was replaced every other day (John et al. Trends. Biomater. Artif. Organs 2002:16(1):28-33.; Connolly. Clin Orthop 1995:313: 8-18.; Gebhart and Lane. Acta Orthop Belg 1991:57(2):130-43.; Gurpinar et al. J Biomater Appl 2003; 18(1):25-33; Lan and Wang, Blood Substitutes. Biotechnol 2003; 31(1):59-68.). Treatments K012, K058, K068 and K0100 at 1 nM and 100 nM concentration were given for 21 days and after completion of the treatment samples were rinsed with PBS followed by fixation (4% HCHO for […]). Samples were then rinsed with nanopure water and stained for 10 min with 40 mM AR-S, pH 4.2, at room temperature. […] Photomicrographs of the stained wells were taken. Subsequently, alizarin red-S stain was extracted using 10% (w/v) CPC in […] sodium phosphate, pH 7.0, for […] at room temperature, and the resulting solutions were read on a Microplate reader with a test wavelength of 540 nm against a reference wavelength of 620 nm.

calvarial osteoblasts [1] = experiment: BrdU cell proliferation assay; format: cell-based, neonatal Sprague-Dawley rats
Description: (§1) Neonatal rat calvarial cell cultures are prepared as described previously (Chattopadhyay et al., Endocrinology 145:3451-62, 2004) using slight modification. Briefly, for calvarial osteoblast cultures, frontal and parietal bones from neonatal Sprague-Dawley rats (1-3 day old) were digested in 0.1% collagenase/0.1% dispase in α-MEM to obtain 5 sequential digests. The second through fifth digests are combined and grown to confluence at 37° C. and 5% CO2 in air in α-MEM, supplemented with 10% fetal bovine serum (FBS), 2 mM glutamine, 100 U/ml penicillin-streptomycin, non-essential amino acid solution and sodium pyruvate.
BrdU assay is used to measure cell proliferation based on the incorporation of BrdU during DNA synthesis in proliferating cells (Chattopadhyay et al., Endocrinology 145:3451-62, 2004). […] Cells were allowed to attach for 24 h and after that cells were starved in 0.5% FCS containing α-MEM medium followed by treatment of K058 at various concentrations for 24 hrs following which cell proliferation was determined by BrdU ELISA method as described by the manufacturer (Roche Biochemicals, Rotkreuz, Switzerland). […] BrdU incubation was carried out for 4 h, cells were fixed and denatured and subsequently treated with anti-BrdU antibody and the immune complexes were detected by the substrate reaction. Absorbance was measured at 370 nm.

calvarial osteoblasts [2] = experiment: Alkaline phosphatase activity assay in calvarial osteoblasts; format: cell-based, neonatal Sprague-Dawley rats
Description: as §1
For alkaline phosphatase (ALP) assay, osteoblasts were plated in 96-well (2000 cells/well) plates in regular growth medium. Twenty-four hours later, when the cells formed a confluent monolayer, medium was replaced with α-MEM medium supplemented with 10% FBS, 10 mM β-glycerophosphate and 50 μg/ml ascorbic acid. Treatment was given with varying concentration of the test compound K012, K058, K068 and K100 at 1 nM and 100 nM concentration. Forty-eight hours after induction, ALP activity of the osteoblasts was determined as described by Akiyama et al (Exp Cell Res 235:362-369, 1997) with slight modifications. Briefly, cells were washed once with PBS and ALP activity was measured by adding ALP buffer (1 M diethanolamine, 0.5 mM MgCl2, 1 mg/ml PNPP, pH 9.0), incubating in 37° C., and absorbance (405 nm) was measured using a microplate spectrophotometer. Statistical significance was determined by paired two-tailed Student's t-tests.

SMILES | inhibition of increase in ALP activity stimulated by 17β-estradiol (anti-estrogenicity) (Ishikawa cells) | ALP levels (estrogenicity) (Ishikawa cells) | mineralization of bone marrow osteoblasts (alizarin red staining) (Bone marrow cells (BMCs)) | osteoblast proliferation (summary of in vitro effects) (calvarial osteoblasts [1]) | osteoblast differentiation (summary of in vitro effects) (calvarial osteoblasts [2])
O=c1c(O)c(-c2ccc(O)c(O)c2)oc2cc(O)c(C3O[C@H](CO)[C@@H](O)[C@H](O)[C@H]3O)c(O)c12 (stereo partly shown) [K012, 6-Glucopyranosyl-3,3′,4′,5,7-pentahydroxyflavone] | did not inhibit | no increase | stimulated | promoted | promoted
O=C1c2c(cc(O)c([C@@H]3OC(CO)[C@@H](O)[C@H](O)C3O)c2O)O[C@@H](c2ccc(O)c(O)c2)[C@@H]1O (stereo partly drawn) [K058, (2S,3S)-(+)-3′,4′,5,7-tetrahydroxydihydroflavonol-6-C-β-D-glucopyranoside] | did not inhibit | no increase | stimulated | promoted | promoted
